Measurements reported in BindingDB's records for doi:10.1021/cb300671s (National Cancer Institute-Bethesda, 2013).

How the values were obtained:
[1] = target: Protein kinase C alpha type (Homo sapiens, UniProt P17252)
[2] = target: Protein kinase C beta type (Homo sapiens, UniProt P05771)
[3] = target: T1, Protein kinase C epsilon type (Homo sapiens, UniProt Q02156)
T1 sequence (Q02156 whole entry): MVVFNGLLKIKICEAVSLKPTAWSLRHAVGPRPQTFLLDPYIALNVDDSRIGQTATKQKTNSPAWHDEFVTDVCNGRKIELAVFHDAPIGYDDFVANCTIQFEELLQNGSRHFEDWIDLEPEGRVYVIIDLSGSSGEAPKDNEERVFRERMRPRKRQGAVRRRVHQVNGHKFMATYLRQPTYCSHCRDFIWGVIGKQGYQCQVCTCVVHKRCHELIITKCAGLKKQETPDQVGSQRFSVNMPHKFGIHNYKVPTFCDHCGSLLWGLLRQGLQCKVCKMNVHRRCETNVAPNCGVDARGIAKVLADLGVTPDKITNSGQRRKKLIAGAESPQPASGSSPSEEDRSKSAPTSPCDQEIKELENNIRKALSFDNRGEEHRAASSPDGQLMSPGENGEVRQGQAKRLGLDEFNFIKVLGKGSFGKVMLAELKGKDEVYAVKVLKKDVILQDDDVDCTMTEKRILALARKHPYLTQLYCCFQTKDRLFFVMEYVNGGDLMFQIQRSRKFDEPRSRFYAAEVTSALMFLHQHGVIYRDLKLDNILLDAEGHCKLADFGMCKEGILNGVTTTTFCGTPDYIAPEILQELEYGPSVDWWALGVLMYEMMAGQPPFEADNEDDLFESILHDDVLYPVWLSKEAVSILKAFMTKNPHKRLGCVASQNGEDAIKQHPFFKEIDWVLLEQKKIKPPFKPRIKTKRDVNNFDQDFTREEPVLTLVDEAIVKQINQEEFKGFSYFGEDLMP

[4] = target: Protein kinase C (Mus musculus, UniProt Q4VA93)
[5] = target: Protein kinase C delta type (Homo sapiens, UniProt Q05655)
Sequence of Protein kinase C delta type (Q05655 whole entry): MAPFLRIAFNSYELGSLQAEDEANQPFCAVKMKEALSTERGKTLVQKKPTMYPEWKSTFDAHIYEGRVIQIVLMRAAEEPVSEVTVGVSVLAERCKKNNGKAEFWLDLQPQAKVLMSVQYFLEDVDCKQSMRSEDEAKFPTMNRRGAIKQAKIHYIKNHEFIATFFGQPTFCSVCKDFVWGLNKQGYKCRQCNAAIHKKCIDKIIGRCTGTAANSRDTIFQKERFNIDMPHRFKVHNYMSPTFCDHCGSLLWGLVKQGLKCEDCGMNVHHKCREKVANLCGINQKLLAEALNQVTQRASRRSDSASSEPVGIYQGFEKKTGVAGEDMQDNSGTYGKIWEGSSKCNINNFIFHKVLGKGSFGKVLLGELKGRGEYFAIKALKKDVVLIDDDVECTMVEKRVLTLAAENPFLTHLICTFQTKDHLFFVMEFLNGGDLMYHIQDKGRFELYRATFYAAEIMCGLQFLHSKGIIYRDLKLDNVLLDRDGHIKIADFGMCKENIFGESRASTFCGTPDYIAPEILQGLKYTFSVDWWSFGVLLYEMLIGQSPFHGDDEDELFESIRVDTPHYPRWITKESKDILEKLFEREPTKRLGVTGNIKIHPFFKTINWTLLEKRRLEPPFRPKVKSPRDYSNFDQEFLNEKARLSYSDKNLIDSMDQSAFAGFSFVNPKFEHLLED

Sequence of Protein kinase C beta type (P05771 whole entry): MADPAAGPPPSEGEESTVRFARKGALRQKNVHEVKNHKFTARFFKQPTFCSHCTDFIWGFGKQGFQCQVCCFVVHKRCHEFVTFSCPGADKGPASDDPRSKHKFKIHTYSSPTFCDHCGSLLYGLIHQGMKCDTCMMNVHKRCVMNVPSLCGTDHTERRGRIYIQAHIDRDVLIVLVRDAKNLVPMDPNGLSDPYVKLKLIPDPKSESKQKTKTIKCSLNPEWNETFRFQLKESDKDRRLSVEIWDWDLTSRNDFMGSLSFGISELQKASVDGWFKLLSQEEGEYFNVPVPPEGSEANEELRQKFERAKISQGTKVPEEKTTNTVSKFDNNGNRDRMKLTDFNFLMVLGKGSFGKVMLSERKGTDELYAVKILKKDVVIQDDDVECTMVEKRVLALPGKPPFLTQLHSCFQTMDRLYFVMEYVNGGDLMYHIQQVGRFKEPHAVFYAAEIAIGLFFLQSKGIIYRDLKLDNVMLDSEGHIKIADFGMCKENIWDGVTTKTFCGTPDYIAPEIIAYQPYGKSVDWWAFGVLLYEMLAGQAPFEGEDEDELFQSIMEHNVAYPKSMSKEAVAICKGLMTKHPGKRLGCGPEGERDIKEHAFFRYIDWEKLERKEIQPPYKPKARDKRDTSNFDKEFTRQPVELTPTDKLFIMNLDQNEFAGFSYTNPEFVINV

Q: How did the Kd [1] turn out when `CCC/C=C/C=C/C(=O)O[C@H]1/C(=C/C(=O)OC)C[C@H]2C[C@H]([C@@H](C)O)OC(=O)C[C@H](O)C[C@@H]3C[C@H](OC(C)=O)C(C)(C)[C@](O)(C[C@@H]4C/C(=C/C(=O)OC)C[C@H](/C=C/C(C)(C)[C@]1(O)O2)O4)O3` was run?
A: 0.73 nM

Q: What about the Kd [2] of the same compound?
A: 0.42 nM

Q: And the Kd [3]?
A: 0.24 nM

Q: What about the Kd [4] of the same compound?
A: 0.48 nM

Q: How did the Kd [1] turn out when `COC(=O)/C=C1/C[C@H]2C[C@]3(O)O[C@H](C[C@@H](O)CC(=O)O[C@@H]([C@@H](C)O)C[C@@H]4C/C(=C\C(=O)OC)[C@H](OC(C)=O)[C@@](O)(O4)C(C)(C)/C=C/[C@@H](C1)O2)C[C@H](OC(C)=O)C3(C)C` [Bryostatin] was run?
A: 0.44 nM

Q: And the Kd [2]?
A: 0.32 nM

Q: What about the Kd [5] of the same compound?
A: 0.21 nM

Q: What about the Kd [3] of the same compound?
A: 0.16 nM

Q: What about the Kd [4] of the same compound?
A: 0.26 nM

Q: How did the Kd [4] turn out when `CCCC(=O)O[C@@H]1[C@@H](C)[C@@]2(O)[C@@H](C=C(CO)C[C@@]3(O)C(=O)C(C)=C[C@@H]23)[C@H]2C(C)(C)[C@]12OC(=O)CCC` [Butyric acid (1aS,1bS,4aS,7aS,8R,9S,9aR)-9-butyryloxy-4a,7b-dihydroxy-3-((R)-hydroxymethyl)-1,1,6,8-tetramethyl-5-oxo-1,1a,1b,4,4a,5,7a,7b,8,9-decahydro-cyclopropa[3,4]benzo[1,2-e]azulen-9a-yl ester] was run?
A: 0.3 nM
